# Values of other authors in US20020068365A1, “CONTROLLED RELEASE NITRIC OXIDE PRODUCING AGENTS” (priority 1998, published 2002).
# Columns and labels:
# [1] = L-arginine free base
# [2] = 30 grams of L-arginine as an infusion
compound,measurement,setting,value
N=C(N)NCCC[C@H](N)C(=O)O [L-arginine],pH range,[1],10.5-12.0
same,rise of circulating levels of L-arginine compared to baseline levels,[2],up to 100 fold
